Laboratory results: US10696677B2 (Research Triangle Institute, priority 2016, dated 2020)
Read-outs that look alike come from different tables or passages of the source.

Tests used:
hCB2 = hCB2 (Homo sapiens, UniProt P34972); assay: radioligand displacement binding at CB2 ([3H]CP55940, membranes of CHO-K1 cells over-expressing receptor)
Experimental: (§1) All compounds were characterized by H^1 NMR and evaluated using a calcium mobilization assay. […] Further characterization of select compounds was performed using radioligand displacement of [3H]1 and equilibrium dissociation constant (Ki) values were determined.

hCB1 [1] = molecular target: T1, hCB1 (Homo sapiens, UniProt P21554); assay: radioligand displacement binding at CB1 (membranes of CHO-K1 cells over-expressing receptor)
T1 sequence (P21554 whole entry): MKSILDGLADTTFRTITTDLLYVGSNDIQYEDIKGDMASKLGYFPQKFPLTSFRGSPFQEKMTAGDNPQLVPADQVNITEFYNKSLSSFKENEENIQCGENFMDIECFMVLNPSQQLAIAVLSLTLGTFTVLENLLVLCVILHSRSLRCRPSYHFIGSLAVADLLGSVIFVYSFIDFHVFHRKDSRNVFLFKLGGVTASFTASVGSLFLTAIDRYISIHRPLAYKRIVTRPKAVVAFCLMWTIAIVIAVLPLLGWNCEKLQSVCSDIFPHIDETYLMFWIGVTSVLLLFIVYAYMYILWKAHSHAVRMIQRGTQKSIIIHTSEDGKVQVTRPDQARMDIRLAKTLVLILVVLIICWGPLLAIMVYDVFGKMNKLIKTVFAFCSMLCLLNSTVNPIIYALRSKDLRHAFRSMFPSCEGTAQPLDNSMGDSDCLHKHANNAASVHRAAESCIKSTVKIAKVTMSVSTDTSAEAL
Experimental: as §1

MDCK = MDCK BBB Assay; format: in vitro ADME; conditions: MDCK BBB assay
hCB1 [2] = molecular target: T1, hCB1; assay: functional fluorescent CB1 activated Gαq16-coupled intracellular calcium mobilization assay in CHO-K1 cells; format: cell-based; parameters: expressed in transfected cells; host or cells: CHO-K1 (membranes); conditions: average of 3-6 measurements, read-out: Apparent antagonist dissociation constant (Ke) at hCB1
[3] = read-out: Binding affinity (Ki) at hCB2, displacement of [3H]CP55940, CHO-K1 membranes, average of 3-6 measurements
[4] = read-out: Binding affinity (Ki) at hCB1, radioligand displacement, CHO-K1 membranes, average of 3-6 measurements

Sequence of hCB2 (P34972 whole entry): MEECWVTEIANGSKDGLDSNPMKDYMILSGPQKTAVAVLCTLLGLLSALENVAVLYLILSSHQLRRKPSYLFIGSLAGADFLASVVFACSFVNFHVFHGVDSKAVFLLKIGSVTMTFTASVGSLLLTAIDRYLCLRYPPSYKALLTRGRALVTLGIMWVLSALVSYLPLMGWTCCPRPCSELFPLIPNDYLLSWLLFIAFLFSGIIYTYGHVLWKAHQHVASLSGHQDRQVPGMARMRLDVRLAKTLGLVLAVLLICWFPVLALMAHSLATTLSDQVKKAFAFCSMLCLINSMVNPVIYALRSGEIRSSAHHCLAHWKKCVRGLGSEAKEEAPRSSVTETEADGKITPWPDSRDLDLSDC

Kb (hCB1 [2]) [nM] | Ki (hCB2) [nM] | Structure (SMILES) | melting point [°C] | Ki (hCB2; [3]) [nM] | Ki (hCB1 [1]; [4]) [nM] | % Permeable (MDCK) [%] | Ki (hCB1 [1]) [nM]
– | – | O=C(Nc1ccccc1)N1CCN(c2ncnc3c2nc(-c2ccccc2Cl)n3-c2ccc(Cl)cc2)CC1 [Compound 121, 4-[8-(2-chlorophenyl)-9-(4-chlorophenyl)-9H-purin-6-yl]-N-phenylpiperazine-1-carboxamide] | 121 to 123 | 2400 | 6 | – | –
– | – | O=C(NC1CCCC1)N1CCN(c2ncnc3c2nc(-c2ccccc2Cl)n3-c2ccc(Cl)cc2)CC1 [Compound 117, 4-[8-(2-Chlorophenyl)-9-(4-chlorophenyl)-9H-purin-6-yl]-N-cyclopentylpiperazine-1-carboxamide] | 248 to 250 | 740 | 5 | 3 | –
53 | – | Clc1ccc(-n2c(-c3ccccc3Cl)nc3c(N4CCN(c5nc6ccccc6[nH]5)CC4)ncnc32)cc1 [Compound 123, 6-[4-(1H-benzimidazol-2-yl)piperazin-1-yl]-8-(2-chlorophenyl)-9-(4-chlorophenyl)-9H-purine] | – | – | – | – | –
– | – | O=S(=O)(C1CC1)N1CCN(c2ncnc3c2nc(-c2ccccc2Cl)n3-c2ccc(Cl)cc2)CC1 [Compound 84, 8-(2-Chlorophenyl)-9-(4-chlorophenyl)-6-[4-(cyclopropylsulfonyl)piperazin-1-yl]-9H-purine] | – | 2300 | – | 4 | 5.3
– | – | O=C(Nc1ccccc1F)N1CCN(c2ncnc3c2nc(-c2ccccc2Cl)n3-c2ccc(Cl)cc2)CC1 [Compound 56, 4-[8-(2-Chlorophenyl)-9-(4-chlorophenyl)-9H-purin-6-yl]-N-(2-fluorophenyl)piperazine-1-carboxamide] | 214 to 215 | 1300 | 6 | – | –
600 | – | N=C(Nc1ccc(F)cc1)NC1CCN(c2ncnc3c2nc(-c2ccccc2Cl)n3-c2ccc(Cl)cc2)CC1 [Compound 27, 1-{1-[8-(2-chlorophenyl)-9-(4-chlorophenyl)-9H-purin-6-yl]piperidin-4-yl}-3-(4-fluorophenyl)guanidine] | – | – | – | – | –
82 | – | Fc1ccc(CNC2CCN(c3ncnc4c3nc(-c3ccccc3Cl)n4-c3ccc(Cl)cc3)CC2)cc1 [Compound 40, 1-[8-(2-chlorophenyl)-9-(4-chlorophenyl)-9H-purin-6-yl]-N-(4-fluorobenzyl)piperidin-4-amine] | – | – | – | – | –
– | – | O=C(Nc1ccc(F)cc1F)N1CCN(c2ncnc3c2nc(-c2ccccc2Cl)n3-c2ccc(Cl)cc2)CC1 [Compound 57, 4-[8-(2-Chlorophenyl)-9-(4-chlorophenyl)-9H-purin-6-yl]-N-(2,4-difluorophenyl)piperazine-1-carboxamide] | 220 to 221 | 3200 | – | – | 9
110 | – | Cc1noc(C)c1-c1nc2c(N3CCN(Cc4ccccc4Cl)CC3)ncnc2n1-c1ccc(Cl)cc1 [Compound 53, 6-[4-(2-chlorobenzyl)piperazin-1-yl]-9-(4-chlorophenyl)-8-(3,5-dimethylisoxazol-4-yl)-9H-purine] | – | – | – | – | –
– | – | O=C(NC1(C(F)(F)F)CCCC1)N1CCN(c2ncnc3c2nc(-c2ccccc2Cl)n3-c2ccc(Cl)cc2)CC1 [Compound 118, 4-[8-(2-Chlorophenyl)-9-(4-chlorophenyl)-9H-purin-6-yl]-N-[1-(trifluoromethyl)cyclopentyl]piperazine-1-carboxamide] | 202 to 204 | 1300 | 24 | – | –
185 | – | CN(Cc1ccc(F)cc1)C1CCN(c2ncnc3c2nc(-c2ccccc2Cl)n3-c2ccc(Cl)cc2)CC1 [Compound 41, 1-[8-(2-chlorophenyl)-9-(4-chlorophenyl)-9H-purin-6-yl]-N-(4-fluorobenzyl)-N-methylpiperidin-4-amine] | – | – | – | – | –
– | – | O=C(Nc1ccccn1)N1CCN(c2ncnc3c2nc(-c2ccccc2Cl)n3-c2ccc(Cl)cc2)CC1 [Compound 122, 4-[8-(2-Chlorophenyl)-9-(4-chlorophenyl)-9H-purin-6-yl]-N-(pyridin-2-yl)piperazine-1-carboxamide] | 120 to 122 | 7100 | 6 | 1 | –
– | 1650 | CS(=O)(=O)N1CCN(c2ncnc3c2nc(-c2ccccc2Cl)n3-c2ccc(Cl)cc2)CC1 [Compound 86, 8-(2-Chlorophenyl)-9-(4-chlorophenyl)-6-[4-(methylsulfonyl)piperazin-1-yl]-9H-purine] | – | – | – | 14 | 24.4
– | – | CCS(=O)(=O)N1CCN(c2ncnc3c2nc(-c2ccccc2Cl)n3-c2ccc(Cl)cc2)CC1 [Compound 78, 8-(2-Chlorophenyl)-9-(4-chlorophenyl)-6-[4-(ethylsulfonyl)piperazin-1-yl]-9H-purine] | – | 980 | – | 18 | 2.7
– | – | O=C(NCC1CCCCC1)N1CCN(c2ncnc3c2nc(-c2ccccc2Cl)n3-c2ccc(Cl)cc2)CC1 [Compound 120, 4-[8-(2-chlorophenyl)-9-(4-chlorophenyl)-9H-purin-6-yl]-N-(cyclohexylmethyl)piperazine-1-carboxamide] | 105 to 107 | 740 | 43 | – | –
– | – | CCCCC(=O)N1CCN(c2ncnc3c2nc(-c2ccccc2Cl)n3-c2ccc(Cl)cc2)CC1 [Compound 103, 8-(2-Chlorophenyl)-9-(4-chlorophenyl)-6-(4-pentanoylpiperazin-1-yl)-9H-purine] | – | 403 | – | 0 | 5.5
– | – | O=C(NC1CCCCC1)N1CCN(c2ncnc3c2nc(-c2ccccc2Cl)n3-c2ccc(Cl)cc2)CC1 [Compound 119, 4-[8-(2-chlorophenyl)-9-(4-chlorophenyl)-9H-purin-6-yl]-N-cyclohexylpiperazine-1-carboxamide] | 228 to 229 | 620 | 1.4 | – | –
– | – | O=C(C1COc2ccccc2O1)N1CCN(c2ncnc3c2nc(-c2ccccc2Cl)n3-c2ccc(Cl)cc2)CC1 (stereo not drawn) [Compound 61, 8-(2-Chlorophenyl)-9-(4-chlorophenyl)-6-[4-(2,3-dihydro-1,4-benzodioxin-2-ylcarbonyl)piperazin-1-yl]-9H-purine] | – | 606 | – | 0 | 5.3
– | – | O=C(Nc1ccc(F)cc1)N1CCN(c2ncnc3c2nc(-c2ccccc2Cl)n3-c2ccc(Cl)cc2)CC1 [Compound 43, 4-[8-(2-Chlorophenyl)-9-(4-chlorophenyl)-9H-purin-6-yl]-N-(4-fluorophenyl)piperazine-1-carboxamide] | 234 to 235 | 2000 | 19 | – | –
– | – | CCCS(=O)(=O)N1CCN(c2ncnc3c2nc(-c2ccccc2Cl)n3-c2ccc(Cl)cc2)CC1 [Compound 79, 8-(2-Chlorophenyl)-9-(4-chlorophenyl)-6-[4-(propylsulfonyl)piperazin-1-yl]-9H-purine] | – | 848 | 1.2 | 6 | –
– | 76000 | FC(F)(F)Oc1ccccc1CN1CCN(c2ncnc3c2nc(-c2ccccc2Cl)n3-c2ccc(Cl)cc2)CC1 [Compound 112, 8-(2-Chlorophenyl)-9-(4-chlorophenyl)-6-{4-[2-(trifluoromethoxy)benzyl]piperazin-1-yl}-9H-purine] | 110 to 111 | – | – | – | –
– | – | O=C(Nc1ccc(F)c(F)c1)N1CCN(c2ncnc3c2nc(-c2ccccc2Cl)n3-c2ccc(Cl)cc2)CC1 [Compound 42, 4-[8-(2-Chlorophenyl)-9-(4-chlorophenyl)-9H-purin-6-yl]-N-(3,4-difluorophenyl)piperazine-1-carboxamide] | 205 to 207 | 4200 | – | 0 | –
